This assay deals with C. parvum strain UGA1. Nature of the assay: C. parvum growth inhibition assay (Nluc luminescence in HCT-8 cells). Format: cell-based, Cryptosporidium parvum. The note with it: Cryptosporidium parvum; for EC50: HCT-8, 48 h, C. parvum growth inhibition in HCT-8 cells, 48 hours, 6 concentrations 10-0.04 μM; for inhibition at 1 µM / inhibition at 10 µM: HCT-8; for inhibition at 1 µM: read-out: % inh @ 1 uM C. parvum; for inhibition at 10 µM: read-out: % inh @ 10 uM C. parvum.

Where [1] appears, read: single point inhibition at 1 uM.
The mark [2] stands for this setting: single point inhibition at 10 uM.
[3] abbreviates: single point inhibition @ 10 uM.

Where two headings read alike, the source gives them in different places. Bounds are passed on as bounds.

The EC50 is the concentration needed to bring the measured effect to its halfway point.

`Cc1cc(-c2cc3cnc(NC(=O)CN4CCCC4)cc3n2C)ncn1` [Example 128, N-(1-methyl-2-(6-methylpyrimidin-4-yl)-1H-pyrrolo[3,2-c]pyridin-6-yl)-2-(pyrrolidin-1-yl)acetamide]: the EC50 is greater than 1 µM. Still for that read-out and setting: the value for `Cc1ccc(-c2cc3cnc(NC4CCOCC4)cc3[nH]2)cc1` [Example 351, N-(tetrahydro-2H-pyran-4-yl)-2-p-tolyl-1H-pyrrolo[3,2-c]pyridin-6-amine] was greater than 1 µM. Turning to `O=C(Nc1cc2[nH]c(-c3ccnc(C(F)(F)F)n3)cc2cn1)C1C2CCCC21` (stereo not shown) [Example 199, N-(2-(2-(trifluoromethyl)pyrimidin-4-yl)-1H-pyrrolo[3,2-c]pyridin-6-yl)bicyclo[3.1.0]hexane-6-carboxamide], under setting [1], the inhibition at 1 µM lay within 0 to 33%. For the same molecule, the inhibition at 10 µM under setting [2] was 67 to 100%.

As to `Cc1cc(-c2cc3cnc(NC(=O)[C@H]4C[C@@H](O)C4)cc3[nH]2)ccn1` [Example 194, (1s,3s)-3-hydroxy-N-(2-(2-methypyridin-4-yl)-1H-pyrrolo[3,2-c]pyridin-6-yl)cyclobutanecarboxamide], for the setting “single point inhibition @ 1 uM”, the inhibition at 1 µM is 0 to 33%. Further, the inhibition at 10 µM under setting [3] was 67 to 100%. `Cc1cc(-c2[nH]c3cc(NC4CCCCC4)ncc3c2C)ccn1` [Example 369, N-cyclohexyl-3-methyl-2-(2-methylpyridin-4-yl)-1H-pyrrolo[3,2-c]pyridin-6-amine] returned an EC50 greater than 1 µM.

Turning to `COc1ccc(C(=O)Nc2cc3[nH]c(-c4ccnc(C)c4)cc3cn2)cc1OC` [Example 296, 3,4-dimethoxy-N-(2-(2-methylpyridin-4-yl)-1H-pyrrolo[3,2-c]pyridin-6-yl)benzamide], the inhibition at 1 µM under setting [1] was in the range of 0 to 33%. In addition, under setting [2], the inhibition at 10 µM is 0 to 33%. In the case of `Cc1cc(-c2cc3cnc(NC(=O)c4cccc5c4cnn5C)cc3[nH]2)ccn1` [Example 288, 1-methyl-N-(2-(2-methylpyridin-4-yl)-1H-pyrrolo[3,2-c]pyridin-6-yl)-1H-indazole-4-carboxamide], the inhibition at 1 µM under setting [1] was in the range of 0 to 33%. Moreover, the inhibition at 10 µM under setting [2] was in the range of 0 to 33%. With `COc1cccc(Nc2cc3[nH]c(-c4cnn(C)c4)cc3cn2)c1` [Example 197, N-(3-methoxyphenyl)-2-(1-methyl-1H-pyrazol-4-yl)-1H-pyrrolo[3,2-c]pyridin-6-amine], the inhibition at 1 µM (single point inhibition @ 1 uM) fell in the range of 0 to 33%. In addition, the inhibition at 10 µM under setting [3] lay in the range of 67 to 100%. As for `COc1nccc(-c2cc3cnc(NC(=O)c4cn(C)nc4C)cc3[nH]2)n1` [Example 250, N-(2-(2-methoxypyrimidin-4-yl)-1H-pyrrolo[3,2-c]pyridin-6-yl)-1,3-dimethyl-1H-pyrazole-4-carboxamide], the inhibition at 1 µM under setting [1] was in the range of 0 to 33%. Moreover, under setting [2], the inhibition at 10 µM is 0 to 33%. Consider `CC(C)n1cc(C(=O)Nc2cc3c(cn2)cc(-c2ccnc(NCCC(F)(F)F)n2)n3C)cn1` [Example 178, 1-isopropyl-N-(1-methyl-2-(2-(3,3,3-trifluoropropylamino)pyrimidin-4-yl)-1H-pyrrolo[3,2-c]pyridin-6-yl)-1H-pyrazole-4-carboxamide], for which the inhibition at 1 µM (single point inhibition @ 1 uM) lay in the range of 0 to 33%. In addition, the inhibition at 10 µM under setting [3] lay within 67 to 100%.

Regarding `CCOc1nccc(-c2cc3cnc(NC(=O)c4ccc(OC)c(OC)c4)cc3[nH]2)n1` [Example 321, N-(2-(2-ethoxypyrimidin-4-yl)-1H-pyrrolo[3,2-c]pyridin-6-yl)-3,4-dimethoxybenzamide], under setting [1], the inhibition at 1 µM fell in the range of 0 to 33%. In addition, the inhibition at 10 µM under setting [2] lay within 0 to 33%.

Molecule `COc1nccc(-c2cc3cnc(NC(=O)C4CC4)cc3n2CCO)n1` [Example 343, N-(1-(2-hydroxyethyl)-2-(2-methoxypyrimidin-4-yl)-1H-pyrrolo[3,2-c]pyridin-6-yl)cyclopropanecarboxamide] returned a half-maximal effective concentration (EC50) greater than 1 µM. Consider `c1ccc(Nc2cc3[nH]c(-c4ccccc4)cc3cn2)cc1` [Example 271, N,2-diphenyl-1H-pyrrolo[3,2-c]pyridin-6-amine], for which the inhibition at 1 µM under setting [1] was 0 to 33%. Moreover, under setting [2], the inhibition at 10 µM lay in the range of 0 to 33%.
